This is an account of results in publication PMC6968488, “In vitro and in vivo evaluation of didymin cyclodextrin inclusion complexes: characterization and chemosensitization activity” (Drug Delivery, 2019).

Data set [1] is described as follows: Pharmacokinetic study after oral administration. In kind it is in vivo. As to conditions: male, rat, plasma, SD rats, 25 mg/kg. On the procedure:
All animal experiments were carried out under the Guide for Care and Use of Laboratory Animals and approved by the approval of the Ethics Committee of Wenzhou Medical University. Male SD rats ([…], Shanghai Laboratory Animal Center, China) weighing 220–250 g (n = 6 per group) were studied in the pharmacokinetic study. Free didymin and two types of didymin inclusion complexes (25 mg/kg, respectively) were orally administered with sterilized water. Then blood samples were collected from the orbit venous plexus at predetermined time intervals. The blood samples were then centrifuged at 15000 r/min for 10 min, then dried at 40 °C under nitrogen flow to solid-phase extraction. Methanol was added to dissolve the residue. Then the concentration of didymin in plasma was determined by HPLC methods and calculated the pharmacokinetic parameters.

Another data set has as its system MCF-7 cells. The experiment in a line: MTT cytotoxicity / chemosensitivity assay, sensitive tumor cells. It is filed as cell-based. Conditions: MCF-7, without DOX, tested concentrations. The method, then: (§1) The cytotoxicity of didymin on various cell lines was examined by MTT assay as previously reported (Yao et al., [2019]). The didymin solution was prepared by dissolving in DMSO at different concentrations and diluted with the fresh medium right before the treatment. The didymin inclusion complex was dispersed in the sterilized water and then diluted with the fresh medium before treatment. Experiments involving healthy cells (HUVEC, H9C2, and PC12) by culturing 100 μL cell suspension (5 × 10^4 cell/mL) in 96 well plates. After 24 h incubation, the didymin or didymin inclusion complexes contained medium was used to replace the overnight medium and cultured for 48 h, respectively. After that, the MTT solution at the concentration of 5 mg/mL was added to each well. After 4 h incubation, the medium was removed, and the MTT formazan was dissolved by DMSO. Then the DMSO solution is measured using a microplate reader with the absorbance wavelength at 570 nm. The untreated cells were used as control. The cell viability (%) was calculated as follows, cell viability (%) = Asample/Acontrol ×100.
(§2) The MCF-7 and MCF-7/ADR cells cytotoxicity of the combination of didymin and doxorubicin were evaluated by MTT assay, as mentioned above.

Another data set is described as follows: Acute toxicity study. It is filed as in vivo, BALB/c mice. As to conditions: mice, single oral dose 250 mg/kg. The method, then: An acute toxicity test was conducted as previously reported (Kandhare et al., [2016]). In brief, the BALB/c mice weighing about 18–22 g were administrated of didymin at a single dose of 250 mg/kg using oral gastric gavages. […] On 15th day animals were sacrificed, and the major organs were collected, fixed, and sliced for H&E staining.

A short description of data set [2]: Solubility study of didymin in different media (HPLC). In kind it is physicochemical. As to conditions: for solubility at 72 h: thermodynamic from solid, room temperature, 72 h stirring. The method, then: Add excess didymin into a different medium (water, ethanol, methanol, 1% β-CD, and 1% HP-β-CD), and keep stirring at room temperature for 72 h. After that, 1.5 mL of the suspension was taken for centrifugation to take the supernatant. After filtering with a […] filter membrane (Shanghai Boguang Biotechnology Co., Ltd, Shanghai, China), the concentration of each solution was measured by the HPLC method.
An analytical HPLC method was developed to determine the concentration of didymin. The chromatographic conditions are: Agilent HC-C18 column (4.6 mm × 250 mm, 5 μm) (Agilent Technologies, Inc., Santa Clara, CA, USA), the mobile phase was phosphate buffer (pH 6.8)–methanol (45:55), the detection wavelength was 283 nm, the column temperature was 25 °C, and the flow rate was 1.0 mL/min, and. The samples were filtered (0.45 μm) and deaerated before use.

Data set [3] concerns MCF-7/ADR cells. The experiment in a line: MTT cytotoxicity / chemosensitivity assay, resistant tumor cells. In kind it is cell-based. The method, then: as §1, §2
The next data set deals with T1, P-gp transporter (Homo sapiens, UniProt P08183).
T1 construct: endogenous in cells; host or cells: MCF-7/ADR cells
T1 sequence (P08183 whole entry): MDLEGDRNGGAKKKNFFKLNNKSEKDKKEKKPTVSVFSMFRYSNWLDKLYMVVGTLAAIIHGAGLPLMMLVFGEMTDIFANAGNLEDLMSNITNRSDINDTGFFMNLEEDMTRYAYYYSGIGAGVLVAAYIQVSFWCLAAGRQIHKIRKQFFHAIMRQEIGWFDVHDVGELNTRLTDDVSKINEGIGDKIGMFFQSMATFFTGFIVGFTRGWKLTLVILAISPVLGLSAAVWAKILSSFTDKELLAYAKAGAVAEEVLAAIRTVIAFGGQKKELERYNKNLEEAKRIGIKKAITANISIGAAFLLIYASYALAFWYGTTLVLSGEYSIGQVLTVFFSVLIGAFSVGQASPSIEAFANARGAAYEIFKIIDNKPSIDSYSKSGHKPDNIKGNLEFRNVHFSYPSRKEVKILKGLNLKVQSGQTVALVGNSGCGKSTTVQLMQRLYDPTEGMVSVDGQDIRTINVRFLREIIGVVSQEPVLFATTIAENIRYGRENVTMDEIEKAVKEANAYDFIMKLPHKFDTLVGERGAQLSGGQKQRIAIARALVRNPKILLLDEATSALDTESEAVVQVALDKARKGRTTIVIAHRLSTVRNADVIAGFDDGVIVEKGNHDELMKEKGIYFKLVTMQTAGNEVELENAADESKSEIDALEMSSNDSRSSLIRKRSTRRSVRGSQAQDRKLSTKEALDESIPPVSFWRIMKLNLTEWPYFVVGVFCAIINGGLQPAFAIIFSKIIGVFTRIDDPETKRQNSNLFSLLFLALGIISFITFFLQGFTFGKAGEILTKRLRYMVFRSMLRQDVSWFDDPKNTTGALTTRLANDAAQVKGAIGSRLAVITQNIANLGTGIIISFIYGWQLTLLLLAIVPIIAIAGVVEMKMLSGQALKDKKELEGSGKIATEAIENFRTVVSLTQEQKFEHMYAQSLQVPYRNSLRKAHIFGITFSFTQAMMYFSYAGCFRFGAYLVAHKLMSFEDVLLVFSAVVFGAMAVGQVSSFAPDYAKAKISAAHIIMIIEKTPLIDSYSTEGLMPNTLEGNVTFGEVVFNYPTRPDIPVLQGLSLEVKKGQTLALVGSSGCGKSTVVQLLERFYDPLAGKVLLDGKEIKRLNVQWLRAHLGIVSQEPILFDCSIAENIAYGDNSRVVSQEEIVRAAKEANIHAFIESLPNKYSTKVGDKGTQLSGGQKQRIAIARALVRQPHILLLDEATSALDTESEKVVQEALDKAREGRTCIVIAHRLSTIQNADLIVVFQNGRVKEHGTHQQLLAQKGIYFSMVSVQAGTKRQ
The experiment in a line: Calcein-AM extrusion assay. Conditions: MCF-7/ADR, 30 min pre-incubation then calcein-AM 30 min. In kind it is cell-based. The method, then:
The effect of didymin and its inclusion complex on the efflux function of P-gp transporter was studied using calcein-AM extrusion assay as reported (Dai et al., [2016]). Briefly, MCF-7/ADR cells were seeded in a 6-well plate at 2 × 10^5 cell/mL overnight before the experiment. The cancer cell was incubated with verapamil or didymin formulations for 30 min and then treated with calcein-AM for another 30 min. Then, the treated cells were washed with ice-cold PBS three times and recorded under fluorescence microscopy. In an independent study, after treatment, the cells were washed, trypsinized, and collected by centrifuge. The collected cells were then washed with PBS and analyzed by flow cytometry (BD Bioscience, Franklin Lakes, NJ, USA). The data was collected with 1 × 10^5 events counter per samples

A short description of data set [4]: MTT cytotoxicity assay on healthy cells. It is filed as cell-based. Conditions: all tested concentrations 10 μM∼200 μM, read-out: cell viability. On the procedure: as §1
On the technique in general: Tetrazolium assays rely on reduction of a dye to a coloured formazan, in cell work by metabolically active cells.

In data set [5] the test system is MCF-7/ADR cells. The experiment in a line: Intracellular uptake study of DOX. In kind it is cell-based. Conditions: DOX 10 μM, 4 h, fluorescence microscopy and quantitative analysis. The method, then: The effect of didymin on the intracellular uptake of the P-gp substrate was conducted as previously reported (Dai et al., [2016]; Yao et al., [2019]). Briefly, MCF-7/ADR cells were seeded in a 6-well plate at 4 × 10^5 cell/mL overnight before the experiment. Then the cancer cells were incubated with DOX (10 μM) at a concentration with or without didymin formulations for 4 h. Then, the treated cells were washed with ice-cold PBS three times and recorded under fluorescence microscopy (Nikon, Tokyo, Japan). In an independent study, after treatment, the cells were washed with ice-cold PBS and then lysed. Then acetonitrile was added into the cell lysate to extract the didymin via protein precipitation (PP)/extraction method. The didymin concentration in the supernatant was determined by the previously validated HPLC method.

A further data set concerns MCF-7/ADR tumor. Briefly: In vivo antitumor efficacy in mice bearing resistant tumors. Further details: species or system BALB/c nude mice. Conditions: DOX 5 mg/kg/3 days i.p.; Didymin/HP-β-CD 20 mg/kg/day i.g.; 14 days. On the procedure:
To further investigate the chemosensitivity of […] inclusion complex, female BALB/c nude mice (5-6 weeks old, Shanghai Laboratory Animal Center, China) were injected subcutaneously with MCF-7/ADR cells (10^7 cells/per mouse). […] (1) Control group, 0.9% saline (0.2 mL/kg/day, i.p.); (2) DOX group, DOX (5 mg/kg/3 days, i.p.); (3) DOX + […] group, DOX (5 mg/kg/3 days, […] was given by oral gavage (i.g.) while DOX was intraperitoneal injected (i.p.). DOX injection was performed 30 min after the […] by gavage. The mouse weight and tumor volume were measured every day. The tumor volume was obtained using the formula (Yao et al., [2019]). On day 14, the mice were sacrificed, and tumor tissues were collected, fixed and sliced for pathological examination (H&E staining, Ki67 immunohistochemical staining, and TUNEL assay).

≈ marks a conversion by molar mass, not a printed value. Like-named read-outs stand apart in the source and are kept apart here. A value given as a limit tells only on which side of the number the result lay.

The term Cmax denotes the maximum level reached in the sampled fluid or tissue. Usually Tmax stands for the time from dosing to the highest level. Usually half-life stands for how long it takes for the measured level to halve. Read a low half-life as fast loss. One may read the solubility as the dissolved amount per volume that the medium holds. For orientation: viability means a read-out of living cells in per cent, often relative to untreated cells. Consider `COc1ccc(C2CC(=O)c3c(O)cc(OC4OC(COC5OC(C)C(O)C(O)C5O)C(O)C(O)C4O)cc3O2)cc1` (stereo not drawn) [didymin, isosakuranetin-7-beta-rutinoside], for which the Cmax in data set [1] was 2770 ng/mL. Also, the Tmax in data set [1] came out at 11.4 ± 3 min. In addition, in [1], the half-life was 105 ± 9.6 min. In addition, the AUC(0-t) in data set [1] (read-out: AUC0–12 h) is 5910 ng·h/mL. Further, the cytotoxicity alone result is “did not exert toxicity on cancer cells” with MCF-7 cells and “did not exert toxicity on cancer cells” in the data set with MCF-7/ADR cells [3] (without DOX, tested concentrations). For the same compound, the “abnormal behaviors and weight change in the observation period” value in the data set “Acute toxicity study” (14 days) was “did not show any abnormal behaviors and weights change”. Also, the “H&E staining of major organs” value in “Acute toxicity study” (after 14 days) was “no signs of any toxicity”. The solubility at 72 h is 735 ± 370 µg/mL (≈ 1240 µM) in [2] (aqueous with cosolvent or surfactant or cyclodextrin, 1% HP-β-CD solution, read-out: solubility in 1% HP-β-CD solution); 1240 ± 720 µg/mL (≈ 2090 µM) in [2] (organic solvent or mixture, ethanol, read-out: solubility in ethanol); 11200 ± 1190 µg/mL (≈ 18900 µM) in data set [2] (organic solvent or mixture, methanol, read-out: solubility in methanol); 107 ± 120 µg/mL (≈ 180 µM) in data set [2] (water, read-out: solubility in water). Also, the “increase of aqueous solubility compared to free didymin” value in data set [2] (presence of HP-β-CD) turned out to be 6.9 times; in [2] (presence of β-CD) it was 4.7 times. Moreover, the “P-gp efflux function (intracellular calcein fluorescence)” value on P-gp transporter is “significantly inhibit the function of P-gp transporter”. The viability at 48 h in data set [4] (human, HUVEC cells) is more than 90%; in [4] (rat, H9C2 cells, H9C2, 48 h) it was more than 90%; in data set [4] (rat, PC12 cells, PC12, 48 h), more than 90%. For the same compound, in the data set on MCF-7/ADR cells [5], the DOX intracellular accumulation entry is listed as “increase the DOX intracellular accumulation”.
The term IC50 denotes the point on the concentration scale where inhibition reaches its midpoint. `COc1cccc2c1C(=O)c1c(O)c3c(c(O)c1C2=O)C[C@@](O)(C(=O)CO)C[C@@H]3O[C@H]1C[C@H](N)[C@H](O)[C@H](C)O1` [DOX, doxorubicin, reference compound] showed a tumor growth inhibition in the data set with MCF-7/ADR tumor of 34%. In addition, the IC50 with MCF-7/ADR cells [3] (Homo sapiens, NCI/ADR-RES, free DOX) was more than 20 µM.
